Among the data in patent US20070191336A1 (priority 2003, published 2007) are IC50 and inhibition values, retold here.

This assay addresses T1, phospho p-38 alpha kinase (Homo sapiens, UniProt Q16539).
T1 construct: purchased Panvera
In words: P-38 alpha kinase assay (spectrophotometric, pyruvate kinase/lactate dehydrogenase coupled). As to conditions: for IC50: Table 3, rates from […] to 2 h time frame; for inhibition at 0.1 µM / inhibition at 1 µM / inhibition at 10 µM: read-out: % Inhibition @ concentration, Table 3. Type of assay: biochemical. As to the method:
In this assay, the oxidation of NADH was continuously measured spectrophometrically. […] The reaction was initiated by adding ATP. The absorption at 340 nm was monitored continuously for up to 4 hours at 30° C. on Polarstar Optima plate reader (BMG). The kinase activity (reaction rate) was calculated from the slope at the time frame from 1.5 h to 2 h.
For inhibition determinations, test compounds were incubated with the reaction mixture for ˜5 min before adding ATP to start the reaction. […] IC50 values were calculated from a series of % inhibition values determined at a range of concentrations of each inhibitor using Prism to process the data and fit inhibition curves. Generally, the rates obtained at the time frame of 1.5 h to 2 h were used for these calculations.

T1 sequence (Q16539 whole entry): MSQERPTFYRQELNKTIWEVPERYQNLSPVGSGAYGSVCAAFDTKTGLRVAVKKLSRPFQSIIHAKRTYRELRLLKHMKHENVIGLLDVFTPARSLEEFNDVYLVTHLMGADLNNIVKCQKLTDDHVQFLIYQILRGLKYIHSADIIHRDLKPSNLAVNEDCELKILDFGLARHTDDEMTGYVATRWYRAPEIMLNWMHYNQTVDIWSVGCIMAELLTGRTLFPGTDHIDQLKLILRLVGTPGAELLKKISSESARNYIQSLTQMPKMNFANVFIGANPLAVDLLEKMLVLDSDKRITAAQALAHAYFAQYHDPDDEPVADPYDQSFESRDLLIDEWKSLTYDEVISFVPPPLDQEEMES

For orientation: IC50 means the concentration that gives 50% inhibition. A low value points to greater potency. As to `CC(C)(C)c1cc(NC(=O)Nc2cccc(C(F)(F)F)c2)n(-c2cccc(CN)c2)n1` [Example 387, 1-{1-[3-(aminomethyl)phenyl]-3-t-butyl-1H-pyrazol-5-yl}-3-(3-(trifluoro-methyl)phenyl)urea], the midpoint of inhibition, the IC50, lay at 4450 nM.
On the same count and under the same terms, to `COc1cccc(NC(=O)Nc2cc(C(C)(C)C)nn2-c2cccc(CN)c2)c1` [Example 388, 1-{1-[3-(aminomethyl)phenyl]-3-t-butyl-1H-pyrazol-5-yl}-3-(3-methoxy-phenyl)urea] belongs 1650 nM.
With `CC(C)(C)c1cc(NC(=O)Nc2ccc(Cl)cc2)n(-c2cccc(CN)c2)n1` [Example 390, 1-{1-[3-(aminomethyl)phenyl]-3-t-butyl-1H-pyrazol-5-yl}-3-(4-chloro-phenyl)urea], the inhibition at 0.1 µM amounted to 24% and the inhibition at 1 µM was found to be 63%.
Compound `CC(C)(C)c1cc(NC(=O)Nc2ccc3c(c2)OCO3)n(-c2cccc(CN)c2)n1` [Example 391, 1-{1-[3-(aminomethyl)phenyl]-3-t-butyl-1H-pyrazol-5-yl}-3-(benzo-[d][1,3]dioxol-5-yl)urea] had a 50% inhibitory concentration (IC50) of 910 nM.
Regarding `CC(C)(C)c1cc(NC(=O)Nc2cccc(Cl)c2Cl)n(-c2cccc(C(N)=O)c2)n1` [Example 392, 1-[3-t-butyl-1-(3-carbamoylphenyl)-1H-pyrazol-5-yl]-3-(2,3-dichlorophenyl)urea], the inhibition at 0.1 µM turned out to be 75% and the inhibition at 1 µM was 86%.
In turn, `CC(C)(C)c1cc(NC(=O)Nc2ccc(Cl)cc2)n(-c2cccc(C(N)=O)c2)n1` [Example 393, 1-[3-t-butyl-1-(3-carbamoylphenyl)-1H-pyrazol-5-yl]-3-(4-chlorophenyl)urea] had a concentration for half-maximal inhibition (IC50) of 400 nM.
`CC(C)(C)c1cc(NC(=O)Nc2cccc(F)c2F)n(-c2cccc(CO)c2)n1` [Example 395, 1-{3-t-butyl-1-[3-(hydroxymethyl)phenyl]-1H-pyrazol-5-yl}-3-(2,3-difluorophenyl)urea] returned an IC50 of 56 nM.
As for `CCOC(=O)c1cccc(-n2nc(C(C)(C)C)cc2NC(=O)Nc2ccc3c(c2)OCO3)c1` [Example 396, ethyl 3-{5-[3-(benzo[d][1,3]dioxo-5-yl)ureido]-3-t-butyl-1H-pyrazol-1-yl}benzoate], the inhibition at 0.1 µM was found to be 3% and the inhibition at 1 µM is 56%.
`CC(C)(C)c1cc(NC(=O)Nc2ccc3c(c2)OCO3)n(-c2cccc(CO)c2)n1` [Example 397, 1-(benzo[d][1,3]dioxol-5-yl)-3-(3-t-butyl-1-(3-(hydroxymethyl)phenyl)-1H -pyrazol-5-yl)urea] had a half-maximal inhibitory concentration (IC50) of 40 nM.
On to `CCOC(=O)Cc1cccc(-n2nc(C(C)(C)C)cc2NC(=O)Nc2ccc3c(c2)OCO3)c1` [Example 399, ethyl 2-(3-{5-[3-(benzo[d][1,3]dioxol-5-yl)ureido]-3-t-butyl-1H-pyrazol-1-yl}phenyl)-acetate], for which the inhibition at 0.1 µM was 21% and the inhibition at 1 µM was determined as 74%.
As to `CC(C)(C)c1cc(NC(=O)Nc2ccc3c(c2)OCO3)n(-c2cccc(CCN)c2)n1` [Example 404, 1-{1-[3-(2-aminoethyl)phenyl]-3-t-butyl-1H-pyrazol-5-yl}-3-(benzo[d][1,3]dioxol-5-yl)urea], the inhibition at 0.1 µM is -11% and the inhibition at 1 µM was 48%.
As to `CC(C)(C)c1cc(NC(=O)Nc2cccc(Cl)c2)n(-c2cccc(CO)c2)n1` [Example 406], the half-maximal inhibitory concentration (IC50) stood at 13.4 nM.
Same read-out and setting: as for `CC(C)(C)c1cc(NC(=O)Nc2cccc(Br)c2)n(-c2cccc(CO)c2)n1` [Example 407, 1-{3-t-butyl-1-[3-(hydroxymethyl)phenyl]-1H-pyrazol-5-yl}-3-(3-bromophenyl)urea], the figure is 10.3 nM; as for `CC(C)(C)c1cc(NC(=O)Nc2cccc(C(F)(F)F)c2)n(-c2cccc(CO)c2)n1` [Example 408, 1-{3-t-butyl-1-[3-(hydroxymethyl)phenyl]-1H-pyrazol-5-yl}-3-(3-(trifluoromethyl)phenyl)urea], 116 nM; as for `COc1cccc(NC(=O)Nc2cc(C(C)(C)C)nn2-c2cccc(CO)c2)c1` [Example 409, 1-{3-t-butyl-1-[3-(hydroxymethyl)phenyl]-1H-pyrazol-5-yl}-3-(3-methoxyphenyl)urea], 30.9 nM.
In the case of `COc1ccc(-n2nc(C(C)(C)C)cc2NC(=O)Nc2cccc(F)c2F)cc1` [Example 415, 1-[3-t-butyl-1-(4-methoxyphenyl)-1H-pyrazol-5-yl]-3-(2,3-difluorophenyl)urea], the inhibition at 0.1 µM was 28% and the inhibition at 1 µM stood at 69%.
For `CCOC(=O)CCc1cccc(-n2nc(C(C)C)cc2NC(=O)Nc2ccc(Cl)cc2)c1` [Example 416, ethyl 3-(3-(5-(3-(4-chlorophenyl)ureido)-3-isopropyl-1H-pyrazol-1-yl)phenyl)propanoate], in that order: 67% and 83%.
In turn, `CC(C)(C)c1cc(NC(=O)Nc2cccc(F)c2F)n(-c2ccc(CO)cc2)n1` [Example 418, 1-{3-t-butyl-1-[4-(hydroxymethyl)phenyl]-1H-pyrazol-5-yl}-3-(2,3-difluoro-phenyl)urea] showed an IC50 of 75 nM.
`CCOC(=O)Cc1ccc(-n2nc(C(C)(C)C)cc2NC(=O)Nc2ccc(Cl)cc2)cc1` [Example 420, ethyl 2-(4-{3-t-butyl-5-[3-(4-chlorophenyl)ureido]-1H-pyrazol-1-yl}phenyl)acetate]: the midpoint of inhibition, the IC50, lay at 14.7 nM. Compared with the last compound, the IC50 is about 5.1-fold lower.
Regarding `CCOC(=O)Cc1ccc(-n2nc(C(C)(C)C)cc2NC(=O)Nc2cccc(Cl)c2Cl)cc1` [Example 421], the IC50 is 14.7 nM.
On the same count and under the same terms, as for `CC(Cc1cccc(-n2nc(C(C)(C)C)cc2NC(=O)Nc2cccc(Cl)c2Cl)c1)C(=O)O` (stereo not drawn) [Example 426, 3-(3-{3-t-butyl-5-[3-(2,3-dichlorophenyl)ureido]-1H-pyrazol-1-yl}-phenyl)-2-methylpropanoic acid], the figure is 13 nM; as for `CCOC(=O)C(C)Cc1ccc(-n2nc(C(C)(C)C)cc2NC(=O)Nc2cccc3ccccc23)cc1` (stereo not drawn) [Example 427, ethyl 3-(4-{3-t-butyl-5-[3-(naphthalen-1-yl)ureido]-1H-pyrazol-1-yl}phenyl)-2-methylpropanoate], 819 nM.
Same read-out and setting: as for `CC(Cc1ccc(-n2nc(C(C)(C)C)cc2NC(=O)Nc2cccc3ccccc23)cc1)C(=O)O` (stereo not drawn) [Example 428, 3-(4-{3-t-butyl-5-[3-(naphthalen-1-yl)ureido]-1H-pyrazol-1-yl}phenyl)-2-methylpropanoic acid], the figure is 140 nM.
For `CCOC(=O)C(C)Cc1ccc(-n2nc(C(C)(C)C)cc2NC(=O)Nc2ccc(Cl)cc2)cc1` (stereo not drawn) [Example 429, ethyl 3-(4-{3-t-butyl-5-[3-(4-chlorophenyl)ureido]-1H-pyrazol-1-yl}phenyl)-2-methylpropanoate], the midpoint of inhibition, the IC50, lay at 1070 nM. Compared with the last compound, the IC50 is about 7.6-fold higher.
The same measure, in the same setting: to `CC(Cc1ccc(-n2nc(C(C)(C)C)cc2NC(=O)Nc2ccc(Cl)cc2)cc1)C(=O)O` (stereo not drawn) [Example 430, 3-(4-{3-t-butyl-5-[3-(4-chlorophenyl)ureido]-1H-pyrazol-1-yl}phenyl)-2-methylpropanoic acid] belongs 942 nM.
Turning to `CC(C)(O)c1cccc(-n2nc(-c3ccccc3)cc2NC(=O)Nc2cccc3ccccc23)c1` [Example 432, 1-{1-[3-(2-hydroxypropan-2-yl)phenyl]-3-phenyl-1H-pyrazol-5-yl}-3-(naphthalen-1-yl)urea], the inhibition at 1 µM is 9% and the inhibition at 10 µM was 24%.
As for `O=C(Nc1ccc(Cl)cc1)Nc1cc(-c2ccccc2)nn1-c1ccc(CO)cc1` [Example 434, 1-(4-chlorophenyl)-3-{1-[4-(hydroxymethyl)phenyl]-3-phenyl-1H-pyrazol-5-yl}-urea], it took 1900 nM to reach half-maximal inhibition (IC50).
As for `CC(C)c1cc(NC(=O)Nc2cccc3ccccc23)n(-c2cccc(C(C)(C)O)c2)n1` [Example 436, 1-{1-[3-(2-hydroxypropan-2-yl)phenyl]-3-isopropyl-1H-pyrazol-5-yl}-3-(naphthalen-1-yl)urea], the inhibition at 0.1 µM is 16% and the inhibition at 1 µM was found to be 41%.
The compound `CC(C)c1cc(NC(=O)Nc2ccc(Cl)cc2)n(-c2ccc(CO)cc2)n1` [Example 438, 1-(4-chlorophenyl)-3-{1-[4-(hydroxymethyl)phenyl]-3-isopropyl-1H-pyrazol-5-yl}-urea] yielded an IC50 of 1300 nM.
The same measure, in the same setting: as for `CC(C)(O)c1cccc(-n2nc(C(F)(F)F)cc2NC(=O)Nc2cccc3ccccc23)c1` [Example 440], the figure is 920 nM.
In turn, `O=C(Nc1ccc(Cl)cc1)Nc1cc(C(F)(F)F)nn1-c1ccc(CO)cc1` [Example 442, 1-(4-chlorophenyl)-3-{3-(trifluoromethyl)-1-[4-(hydroxyl-methyl)phenyl]-1H-pyrazol-5-yl}urea] gave an IC50 of 3010 nM.
In the case of `Cc1cc(NC(=O)Nc2cccc3ccccc23)n(-c2cccc(C(C)(C)O)c2)n1` [Example 444, 1-{1-[3-(2-hydroxypropan-2-yl)phenyl]-3-methyl-1H-pyrazol-5-yl}-3-(naphthalen-1-yl)urea], the 50% inhibitory concentration (IC50) stood at 5000 nM.
Turning to `Cc1cc(NC(=O)Nc2cccc(Cl)c2Cl)n(-c2ccc(CO)cc2)n1` [Example 450, 1-(2,3-dichlorophenyl)-3-{1-[4-(hydroxymethyl)phenyl]-3-methyl-1H pyrazol-5-yl)urea], the inhibition at 1 µM is 89% and the inhibition at 10 µM was 192%.
In the case of `Cc1cc(NC(=O)Nc2cccc3ccccc23)n(-c2ccc(C(O)C(F)(F)F)cc2)n1` (stereo not drawn) [Example 451, 1-{3-methyl-1-[4-(2,2,2-trifluoro-1-hydroxyethyl)phenyl]-1H-pyrazol-5-yl}-3-(naphthalen-1-yl)urea], the inhibition at 1 µM came to 3%.
The compound `O=C(Nc1cccc(Cl)c1)Nc1cc(-c2ccccc2)nn1-c1cccc(CO)c1` [Example 455, 1-{3-phenyl-1-[3-(hydroxymethyl)phenyl]-1H-pyrazol-5-yl}-3-(3-chlorophenyl)urea] came in with an IC50 of 100 nM.
